Test results reported in the NIST ThermoML archive (doi:10.1021/je020185k).

Experiments:
[1] = Liquid; for mass density: 298.15 K, 101.33 kPa
[2] = xn = mol fraction of the nth substance listed; conditions: 298.15 K, 101.3 kPa, Liquid

CCCCCl [1-chlorobutane]
Conditions	mass density [kg/m3]
[1]	880.69

Conditions	Normal boiling temperature [°C]
[1], Ebulliometric method (Recirculating still)	78.37

CCCCCl [1-chlorobutane] + C1COCCO1
[2]
Conditions	mass density [kg/m3]
x2 = 0.0422	885.61
x2 = 0.0947	891.8
x2 = 0.2055	905.35
x2 = 0.2766	914.45
x2 = 0.4083	932.02
x2 = 0.4852	942.87
x2 = 0.6082	961.08
x2 = 0.6587	968.92
x2 = 0.7939	990.92
x2 = 0.894	1008.37
x2 = 0.9509	1018.71

CC(C)(C)Cl [2-chloro-2-methylpropane] + C1COCCO1
[2]
Conditions	mass density [kg/m3]
x2 = 0.0563	845.77
x2 = 0.1059	853.89
x2 = 0.2019	870.2
x2 = 0.3134	889.71
x2 = 0.4148	908.22
x2 = 0.5097	926.46
x2 = 0.6071	945.55
x2 = 0.7113	966.4
x2 = 0.8	984.5
x2 = 0.9062	1006.81
x2 = 0.9554	1017.73

C1COCCO1 [1,4-dioxane]
[1]
Conditions	Normal boiling temperature [°C]	mass density [kg/m3]
–	101.37	1027.88

CC(C)CCl [1-chloro-2-methylpropane] + C1COCCO1
[2]
Conditions	mass density [kg/m3]
x2 = 0.0529	877.81
x2 = 0.1009	883.95
x2 = 0.2001	896.98
x2 = 0.3003	910.79
x2 = 0.3957	924.5
x2 = 0.5022	940.58
x2 = 0.5945	955.19
x2 = 0.7005	972.78
x2 = 0.7926	988.8
x2 = 0.8978	1008.04
x2 = 0.9371	1015.61

CCC(C)Cl (centres undefined) [2-chlorobutane] + C1COCCO1
[2]
Conditions	mass density [kg/m3]
x2 = 0.0522	874.11
x2 = 0.0886	878.88
x2 = 0.1892	892.48
x2 = 0.2923	907.06
x2 = 0.3647	917.71
x2 = 0.4928	937.42
x2 = 0.6155	957.41
x2 = 0.7149	974.47
x2 = 0.8019	990.07
x2 = 0.9068	1009.72
x2 = 0.941	1016.33

CC(C)CCl [1-chloro-2-methylpropane]
Conditions	mass density [kg/m3]
[1]	871.13

Conditions	Normal boiling temperature [°C]
[1], Ebulliometric method (Recirculating still)	68.90

CC(C)(C)Cl [2-chloro-2-methylpropane]
Conditions	mass density [kg/m3]
[1]	836.45

Conditions	Normal boiling temperature [°C]
[1], Ebulliometric method (Recirculating still)	50.73

CCC(C)Cl (centres undefined) [2-chlorobutane]
Conditions	mass density [kg/m3]
[1]	867.4

Conditions	Normal boiling temperature [°C]
[1], Ebulliometric method (Recirculating still)	68.11
